This is an account of results in US5302604A, “Cholesterol lowering compounds produced by directed biosynthesis” (Merck & Co., Inc., priority 1992, dated 1994).

For this assay, the target named is T1, Squalene Synthetase (Rattus norvegicus, UniProt Q02769).
T1 construct: from tissue; host or cells: liver microsomes (100,000×g pellet) of male Charles River CD rats fed 0.1% lovastatin for 4 days
T1 sequence (Q02769 1-416): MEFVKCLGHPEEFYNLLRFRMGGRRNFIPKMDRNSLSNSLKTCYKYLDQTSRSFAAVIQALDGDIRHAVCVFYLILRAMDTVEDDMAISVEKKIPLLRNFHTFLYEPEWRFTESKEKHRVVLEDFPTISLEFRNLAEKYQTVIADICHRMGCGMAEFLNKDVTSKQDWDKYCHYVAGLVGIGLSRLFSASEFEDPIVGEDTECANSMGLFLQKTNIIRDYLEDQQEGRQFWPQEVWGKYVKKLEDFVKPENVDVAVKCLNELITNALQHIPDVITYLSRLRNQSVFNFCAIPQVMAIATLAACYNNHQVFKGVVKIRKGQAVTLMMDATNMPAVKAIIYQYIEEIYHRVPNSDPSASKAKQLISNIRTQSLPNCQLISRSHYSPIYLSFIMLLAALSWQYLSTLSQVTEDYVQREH
As to the kind of experiment: Squalene synthetase assay (in vitro inhibition, conversion of [4-^14 C]farnesyl-pyrophosphate). Type of assay: biochemical. Conditions: rat liver microsomes, 30° C., 20 minutes. As for the experimental part:
The intrinsic squalene synthetase inhibitory activity of representative compounds of this invention was measured by the standard in vitro protocol described below:
PREPARATION OF RAT LIVER MICROSOMES
Male, Charles River CD rats (120 to 150 g) were fed a diet containing 0.1% lovastatin for 4 days. The livers from these rats were homogenized in 5 volumes (mL/g) of ice cold 50 mM HEPES (4-(2-hydroxyethyl)-1-piperazine-ethanesulfonic acid), 5 mM EDTA (ethylenediaminetetraacetic acid) pH 7.5 with a Potter-Elvehjem type tissue grinder. The homogenate was centrifuged twice at 20,000×g for 15 min. at 4° C., discarding the pellet each time. The supernatant was then centrifuged at 100,000×g for 1 hr at 4° C. The resulting microsomal pellet was resuspended in a volume of the above homogenizing buffer equal to one-fifth the volume of the original homogenate. This microsomal preparation has a protein concentration of about 7 mg/mL. The microsomal suspensions were stored in aliquots at -70° C. Squalene synthetase activity in these aliquots is stable for a least several months.
Partial Purification of Prenyl Transferase
Prenyl transferase was purified to use in the enzymatic synthesis of radiolabelled farnesyl pyrophosphate. […]

With `C=C(CCC12OC(C(=O)O)C(O)(C(=O)O)C(C(=O)O)(O1)C(OC(=O)/C=C/C(C)CC(C)CC)C2O)C(OC(C)=O)C(C)Cc1ccsc1` (stereo not shown), the IC50 is 0.201 nM.
